Data as given in patent US8772322B2, “Synergistic preservative compositions” (ISP Investments Inc., priority 2010, dated 2014).

Experiments:
Format in all cases: cell-based
[1] = test system: Staphylococcus aureus (ATCC 6538); assay: MIC / growth test of aqueous biocide mixtures in TSB, 24 hr at 32° C., with synergy index (Kull); on growth: key: growth of the microorganism took place (symbol '+'); or not (symbol '−')
Experimental: (§1) Synergy is determined from combination studies of the different actives according to the method of calculation put forward by F. C. Kull et al, Applied Microbiology, 9:538 (1961): Synergy Index (SI)=Qa/QA+Qb/QB
(§2) Where • Qa=concentration of component A in the biocide composition showing the desired effect (e.g. no growth of microorganisms) • QA=concentration of component A as single component showing the desired effect • Qb=concentration of component B in the biocide composition showing the desired effect and • QB=concentration of component B as single component showing the desired effect
(§3) For a system consisting of three active components the synergy index is calculated by the formula: Synergy Index (SI)=Qa/QA+Qb/QB+Qc/QC
(§4) Synergy in a composition then exists when the synergy index is less than 1.
(§5) In this example synergy is shown against the microorganism Staphylococcus aureus (ATCC 6538). For this purpose MIC values were determined for each individual active as well as for different combinations of the 3 actives. MIC (Minimum Inhibitory Concentration) defines the lowest concentration level of a substance to inhibit the growth of a given organism.
Subsequently the activity of these mixtures were tested against Staphylococcus aureus.
(§6) The cell density of S. aureus was 10*5 cells/ml. The incubation time was 24 hr at 32° C.
(§7) TSB (Tryptic Soy […]) was used as nutrient medium.
In this way the table represents the MIC value for each tested combination.

[2] = test system: Escherichia coli (ATCC 8793); assay: MIC / growth test of aqueous biocide mixtures, same protocol as Example 1, with synergy index; on growth: key: growth of the microorganism took place (symbol '+'); or not (symbol '−')
Experimental: as §1, §2, §3, §4, §5, §6, §7
In this example synergy is shown against the microorganism Escherichia coli (ATCC 8793).
(§8) The test protocol is the same as described under Example 1.
In Table 6 the synergy index has been calculated.

[3] = test system: Pseudomonas aeruginosa (ATCC 9027); assay: as above; on growth: key: growth of the microorganism took place (symbol '+'); or not (symbol '−')
Experimental: as §1, §2, §3, §4, §5, §6, §7
In this example synergy is shown against the microorganism Pseudomonas aeruginosa (ATCC 9027).
as §8
In Table 4 the synergy index has been calculated.

[4] = single active, incubation time 24 hours
[5] = in combination with IPBC 3.9 + CMIT/MIT 0.75 ppm
[6] = in combination with IPBC 7.8 + CMIT/MIT 0.75 ppm
[7] = in combination with IPBC 15.6 + CMIT/MIT 0.75 ppm
[8] = in combination with IPBC 31.2 + CMIT/MIT 0.75 ppm

O=c1[nH]sc2ccccc12 [BIT, 1,2-Benzisothiazolin-3-one]
6.25 ppm: MIC as single component (QA, QB, Qc) [1, 4] | MIC as single component (QA, QB, QC) [2, 4] | MIC BIT con. Qb ([3]; in combination with IPBC 62.5 + CMIT/MIT 0.75 ppm) | MIC BIT con. Qb ([3]; in combination with IPBC 125 + CMIT/MIT 0.75 ppm)
3.12 ppm: MIC BIT con. Qb ([2]; in combination with IPBC 0.98 + CMIT/MIT 0.75 ppm) | MIC BIT con. Qb ([2]; in combination with IPBC 1.95 + CMIT/MIT 0.75 ppm) | MIC BIT con. Qb ([2]; in combination with IPBC 3.9 + CMIT/MIT 0.19 ppm) | MIC BIT con. Qb [2, 5] | MIC BIT con. Qb ([2]; in combination with IPBC 7.8 + CMIT/MIT 0.19 ppm) | MIC BIT con. Qb [2, 6] | MIC BIT con. Qb ([2]; in combination with IPBC 15.6 + CMIT/MIT 0.19 ppm) | MIC BIT con. Qb [2, 7] | MIC BIT con. Qb ([2]; in combination with IPBC 31.2 + CMIT/MIT 0.19 ppm) | MIC BIT con. Qb ([2]; in combination with IPBC 62.5 ppm, CMIT/MIT 0)
0.01 ppm: MIC BIT con. Qb ([1]; in combination with IPBC 7.8 + CMIT/MIT 1.5 ppm)
+: growth ([1]; BIT 0.01 ppm, IPBC 0, without CMIT/MIT) | growth ([1]; BIT 0.03 ppm, IPBC 0, without CMIT/MIT) | growth ([1]; BIT 0.05 ppm, IPBC 0, without CMIT/MIT) | growth ([1]; BIT 0.1 ppm, IPBC 0, without CMIT/MIT) | growth ([1]; BIT 0.19 ppm, IPBC 0, without CMIT/MIT) | growth ([1]; BIT 0.39 ppm, IPBC 0, without CMIT/MIT) | growth ([1]; BIT 0.78 ppm, IPBC 0, without CMIT/MIT) | growth ([1]; BIT 1.56 ppm, IPBC 0, without CMIT/MIT) | growth ([1]; BIT 3.12 ppm, single active) | growth ([2]; BIT 1.56 ppm, single active) | growth ([2]; BIT 3.12 ppm, single active) | growth ([3]; BIT 6.25 ppm, single active) | growth ([3]; BIT 12.5 ppm, single active) | growth ([3]; BIT 25 ppm, single active)
1.56 ppm: MIC BIT con. Qb ([1]; in combination with IPBC 1.95 + CMIT/MIT 0.37 ppm) | MIC BIT con. Qb ([1]; in combination with IPBC 3.9 + CMIT/MIT 0.37 ppm) | MIC BIT con. Qb ([1]; in combination with IPBC 3.9 ppm, CMIT/MIT 0) | MIC BIT con. Qb ([1]; in combination with IPBC 7.8 + CMIT/MIT 0.37 ppm) | MIC BIT con. Qb ([2]; in combination with IPBC 62.5 + CMIT/MIT 0.19 ppm)
−: growth ([1]; BIT 3.12 ppm, IPBC 0, without CMIT/MIT) | growth ([1]; BIT 6.25 ppm, IPBC 0, without CMIT/MIT) | growth ([1]; BIT 6.25 ppm, single active) | growth ([1]; BIT 12.5 ppm, IPBC 0, without CMIT/MIT) | growth ([1]; BIT 12.5 ppm, single active) | growth ([1]; BIT 25 ppm, single active) | growth ([1]; BIT 50 ppm, single active) | growth ([1]; BIT 100 ppm, single active) | growth ([2]; BIT 6.25 ppm, single active) | growth ([2]; BIT 12.5 ppm, single active) | growth ([2]; BIT 25 ppm, single active) | growth ([2]; BIT 50 ppm, single active) | growth ([2]; BIT 100 ppm, single active) | growth ([3]; BIT 50 ppm, single active) | growth ([3]; BIT 100 ppm, single active) | growth ([3]; BIT 200 ppm, single active)
25 ppm: MIC BIT con. Qb ([3]; in combination with IPBC 125 ppm, CMIT/MIT 0)
12.5 ppm: MIC BIT con. Qb [3, 5] | MIC BIT con. Qb [3, 6] | MIC BIT con. Qb [3, 7] | MIC BIT con. Qb [3, 8]
0.39 ppm: MIC BIT con. Qb ([1]; in combination with IPBC 3.9 + CMIT/MIT 1.5 ppm)
50 ppm: MIC as single component (QA, QB, QC) [3, 4]
0.78 ppm: MIC BIT con. Qb ([1]; in combination with IPBC 0.49 + CMIT/MIT 1.5 ppm) | MIC BIT con. Qb ([1]; in combination with IPBC 0.98 + CMIT/MIT 1.5 ppm) | MIC BIT con. Qb ([1]; in combination with IPBC 1.95 + CMIT/MIT 1.5 ppm) | MIC BIT con. Qb ([1]; in combination with IPBC 7.8 ppm, CMIT/MIT 0) | MIC BIT con. Qb [2, 8]
